According to patent US20060045953A1 (priority 2004, published 2006):

What follows are compounds tested against T1, hT1R2/hT1R3 sweet receptor (Homo sapiens, UniProt Q7RTX0+Q8TE23) (assay: In vitro hT1R2/hT1R3 sweet taste receptor activation assay (FLIPR, dose response)). Details: Table E, Sweet Enhancer Amides; read-out: Sweet EC50.
T1 construct: expressed in transfected cells; host or cells: HEK293 derivative stably expressing Gα15, clone S-9
T1 sequence (Q8TE23 20-839): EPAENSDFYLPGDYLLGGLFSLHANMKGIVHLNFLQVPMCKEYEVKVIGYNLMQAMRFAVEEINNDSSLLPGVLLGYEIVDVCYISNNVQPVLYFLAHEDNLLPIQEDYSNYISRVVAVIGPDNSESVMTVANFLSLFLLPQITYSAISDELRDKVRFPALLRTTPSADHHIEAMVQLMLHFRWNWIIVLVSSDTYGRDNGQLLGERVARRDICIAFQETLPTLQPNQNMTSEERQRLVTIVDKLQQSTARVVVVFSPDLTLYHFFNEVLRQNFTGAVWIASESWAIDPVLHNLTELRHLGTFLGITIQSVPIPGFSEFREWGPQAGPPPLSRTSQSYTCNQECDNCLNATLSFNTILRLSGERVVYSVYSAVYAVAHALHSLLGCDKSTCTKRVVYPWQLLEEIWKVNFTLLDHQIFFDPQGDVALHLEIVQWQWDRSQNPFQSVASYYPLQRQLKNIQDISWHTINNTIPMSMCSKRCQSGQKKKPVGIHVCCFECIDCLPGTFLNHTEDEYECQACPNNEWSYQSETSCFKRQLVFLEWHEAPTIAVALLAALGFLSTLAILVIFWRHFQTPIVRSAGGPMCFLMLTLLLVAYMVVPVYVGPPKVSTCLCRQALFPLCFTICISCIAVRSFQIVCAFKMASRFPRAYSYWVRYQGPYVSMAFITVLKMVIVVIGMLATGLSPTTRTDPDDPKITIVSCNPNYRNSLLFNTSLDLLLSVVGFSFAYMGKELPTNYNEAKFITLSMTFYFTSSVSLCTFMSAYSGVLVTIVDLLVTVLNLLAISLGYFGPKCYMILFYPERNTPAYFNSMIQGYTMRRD
T1 sequence (Q7RTX0 21-852): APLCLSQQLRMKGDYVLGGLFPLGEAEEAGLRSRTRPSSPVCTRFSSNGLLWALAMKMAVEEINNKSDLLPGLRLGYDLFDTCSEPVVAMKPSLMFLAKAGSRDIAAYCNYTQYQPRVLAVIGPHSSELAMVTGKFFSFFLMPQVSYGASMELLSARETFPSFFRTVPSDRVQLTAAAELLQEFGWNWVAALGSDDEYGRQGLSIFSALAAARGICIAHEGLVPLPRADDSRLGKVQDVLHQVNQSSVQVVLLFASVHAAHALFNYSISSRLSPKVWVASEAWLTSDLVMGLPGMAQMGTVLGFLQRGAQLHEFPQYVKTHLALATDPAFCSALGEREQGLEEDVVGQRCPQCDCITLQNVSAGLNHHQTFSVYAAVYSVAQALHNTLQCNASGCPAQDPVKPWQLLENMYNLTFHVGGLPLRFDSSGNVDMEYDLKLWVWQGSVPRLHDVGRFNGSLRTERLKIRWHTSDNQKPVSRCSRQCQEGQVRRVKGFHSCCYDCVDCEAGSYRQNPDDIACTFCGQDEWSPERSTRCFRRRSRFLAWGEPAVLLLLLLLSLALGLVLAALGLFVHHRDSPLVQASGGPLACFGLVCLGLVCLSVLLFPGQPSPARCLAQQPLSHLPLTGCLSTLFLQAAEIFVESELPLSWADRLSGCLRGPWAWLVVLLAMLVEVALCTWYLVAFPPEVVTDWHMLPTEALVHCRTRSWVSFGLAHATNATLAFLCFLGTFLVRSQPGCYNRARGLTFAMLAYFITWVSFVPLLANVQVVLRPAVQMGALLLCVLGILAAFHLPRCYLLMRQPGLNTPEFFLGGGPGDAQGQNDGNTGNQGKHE
Format: cell-based
Method: Activity was determined using an automated fluorometric imaging assay on a FLIPR instrument (Fluorometric Intensity Plate Reader, Molecular Devices, Sunnyvale, Calif.) (designated FLIPR assay). […] S-9 cells were grown for 24 hours at 37° C. S-9 cells were then loaded with the calcium dye Fluo-3AM (Molecular Probes, Eugene, Oreg.), 4 µM in a phosphate buffered saline (D-PBS) (Invitrogen, Carlsbad, Calif.), for 1 hour at room temperature. After replacement with 25 µl D-PBS, stimulation was performed in the FLIPR instrument and at room temperature by the addition of 25 µl D-PBS supplemented with different stimuli at concentrations corresponding to twice the desired final level.
For dose-responses analysis, stimuli were presented in duplicates at 10 different concentrations ranging from 60 nM to 30 µM. Activities were normalized to the response obtained with 400 mM D-fructose, a concentration that elicits maximum receptor response. EC50s were determined using a non-linear regression algorithm (using a Senomyx, Inc. software), where the Hill slope, bottom asymptotes and top asymptotes were allow to vary.

Compared with `Cc1nocc1C(=O)NC1c2ccccc2CCC1C` (stereo not drawn) [Example E6, 3-methyl-N-(2-methyl-1,2,3,4-tetrahydronaphthalen-1-yl)isoxazole-4-carboxamide], `Cc1nocc1C(=O)N[C@@H]1CCCc2ccccc21` [Example E25, (R)-3-methyl-N-(1,2,3,4-tetrahydronaphthalen-1-yl)isoxazole-4-carboxamide] is 5.3-fold higher in EC50: 1.48 µM for the first, 7.79 µM for the second.

First: O=C(NC1CCCc2ccccc21)c1cccc(Cl)c1O (stereo not drawn) [Example E7, 3-chloro-2-hydroxy-N-(1,2,3,4-tetrahydronaphthalen-1-yl)benzamide]
Second: Cc1c(Cl)cccc1C(=O)N[C@H]1CCCc2ccccc21 [Example E13, (S)-3-chloro-2-methyl-N-(1,2,3,4-tetrahydronaphthalen-1-yl)benzamide]
The EC50 of the first is 1.6-fold lower: 1.81 µM for the first, 2.91 µM for the second. The first is the more potent here.

`CC1CCc2ccccc2C1NC(=O)c1cccc(O)c1O` (stereo not drawn) [Example E8, 2,3-dihydroxy-N-(2-methyl-1,2,3,4-tetrahydronaphthalen-1-yl)benzamide] and `CC1CCc2ccccc2C1NC(=O)c1ccccc1O` (stereo not drawn) [Example E9, 2-hydroxy-N-(2-methyl-1,2,3,4-tetrahydronaphthalen-1-yl)benzamide] are within 1.5-fold of each other in EC50: 1.98 µM for the first, 2.36 µM for the second.

`COc1cccc2c1CCCC2NC(=O)c1cccc(O)c1O` (stereo not drawn) [Example E10, 2,3-dihydroxy-N-(5-methaxy-1,2,3,4-tetrahydronaphthalen-1-yl)benzamide] and `O=C(N[C@@H]1CCCc2ccccc21)c1cccc(O)c1O` [Example E17, (R)-2,3-dihydroxy-N-(1,2,3,4-tetrahydronaphthalen-1-yl)benzamide] are within 1.5-fold of each other in EC50: 2.44 µM for the first, 3.13 µM for the second.

`Cc1nocc1C(=O)NC1CCC(C)c2ccccc21` (stereo not drawn) [Example E11, 3-methyl-N-(4-methyl-1,2,3,4-tetrahydronaphthalen-1-yl)isoxazole-4-carboxamide] and `COc1cccc2c1CCCC2NC(=O)c1conc1C` (stereo not drawn) [Example E12, N-(5-methoxy-1,2,3,4-tetrahydronaphthalen-1-yl)-3-methylisoxazole-4-carboxamide] are within 1.5-fold of each other in EC50: 2.46 µM for the first, 2.85 µM for the second.

`Cc1cccc(C)c1C(=O)N[C@H]1CCCc2ccccc21` [Example E14, (S)-2,6-dimethyl-N-(1,2,3,4-tetrahydronaphthalen-1-yl)benzamide] and `O=C(NC1CCCc2ccccc21)c1c(Cl)cccc1Cl` (stereo not drawn) [Example E15, 2,6-dichloro-N-(1,2,3,4-tetrahydronaphthalen-1-yl)benzamide] are within 1.5-fold of each other in EC50: 2.91 µM for the first, 3.02 µM for the second.

`COc1c(Cl)ccc(Cl)c1C(=O)NC1CCCc2ccccc21` (stereo not drawn) [Example E16, 3,6-dichloro-2-methoxy-N-(1,2,3,4-tetrahydronaphthalen-1-yl)benzamide] and `COc1ccc(Cl)c(OC)c1C(=O)N[C@H]1CCCc2ccccc21` [Example E20, (S)-3-chloro-2,6-dimethoxy-N-(1,2,3,4-tetrahydronaphthalen-1-yl)benzamide] are within 1.5-fold of each other in EC50: 3.04 µM for the first, 4.13 µM for the second.

`Cc1c(F)cccc1C(=O)N[C@H]1CCCc2ccccc21` [Example E19, (S)-3-fluoro-2-methyl-N-(1,2,3,4-tetrahydronaphthalen-1-yl)benzamide] and `O=C(N[C@@H]1CCCc2ccccc21)c1cccc(F)c1` [Example E23, (R)-3-fluoro-N-(1,2,3,4-tetrahydronaphthalen-1-yl)benzamide] are within 1.5-fold of each other in EC50: 3.57 µM for the first, 4.86 µM for the second.

`O=C(N[C@@H]1CCCc2ccccc21)c1cncc(Br)c1` [Example E21, (R)-5-bromo-N-(1,2,3,4-tetrahydronaphthalen-1-yl)nicotinamide] and `O=C(N[C@@H]1CCCc2ccccc21)c1cccc(Cl)c1` [Example E22, (R)-3-chloro-N-(1,2,3,4-tetrahydronaphthalen-1-yl)benzamide] are within 1.5-fold of each other in EC50: 4.19 µM for the first, 4.52 µM for the second.

Compared with `O=C(N[C@@H]1CCCc2ccccc21)c1cc(O)ccc1O` [Example E24, (R)-2,5-dihydroxy-N-(1,2,3,4-tetrahydronaphthalen-1-yl)benzamide], `CC1CCCCC1NC(=O)c1cc(Cl)ccc1Cl` (stereo not drawn) [Example E33, 2,5-dichloro-N-(2-methylcyclohexyl)benzamide] is 9.6-fold lower in EC50: 6.04 µM for the first, 0.63 µM for the second.

`Cc1c(F)c(F)c(C(=O)NC(C)C(C)C)c(F)c1F` (stereo not drawn) [Example E27, 2,3,5,6-tetrafluoro-4-methyl-N-(3-methylbutan-2-yl)benzamide] and `Cc1c(F)c(F)c(C(=O)NC(C)C(C)(C)C)c(F)c1F` (stereo not drawn) [Example E28, N-(3,3-dimethylbutan-2-yl)-2,3,5,6-tetrafluoro-4-methylbenzamide] are within 1.5-fold of each other in EC50: 0.14 µM for the first, 0.21 µM for the second.

`CC1CCCCC1NC(=O)c1cccc(OC(F)(F)F)c1` (stereo not drawn) [Example E29, N-(2-methylcyclohexyl)-3-(trifluoromethoxy)benzamide] and `CC1CCCCC1NC(=O)c1ccc(F)c(C(F)(F)F)c1` (stereo not drawn) [Example E32, 4-fluoro-N-(2-methylcyclohexyl)-3-(trifluoromethyl)benzamide] are within 1.5-fold of each other in EC50: 0.42 µM for the first, 0.51 µM for the second.

First: CC1CCCCC1NC(=O)c1cc(F)cc(Cl)c1 (stereo not drawn) [Example E30, 3-chloro-5-fluoro-N-(2-methylcyclohexyl)benzamide]
Second: COc1cc(C(=O)NC2CCCCC2C)cc(Cl)n1 (stereo not drawn) [Example E40, 2-chloro-6-methoxy-N-(2-methylcyclohexyl)isonicotinamide]
The EC50 of the first is 2.1-fold lower: 0.45 µM for the first, 0.95 µM for the second.

Going from `Cc1c(F)c(F)c(C(=O)N[C@H](C)C(C)(C)C)c(F)c1F` [Example E31, (R)-N-(3,3-dimethylbutan-2-yl)-2,3,5,6-tetrafluoro-4-methylbenzamide] to `Cc1c(F)c(F)c(C(=O)N[C@@H](C)C(C)(C)C)c(F)c1F` [Example E38, (S)-N-(3,3-dimethylbutan-2-yl)-2,3,5,6-tetrafluoro-4-methylbenzamide], the EC50 rises from 0.49 µM to 0.9 µM (1.8-fold). The first is the more potent here.

First: CCCCC(C)NC(=O)c1c(F)c(F)c(C)c(F)c1F (stereo not drawn) [Example E34, 2,3,5,6-tetrafluoro-N-(hexan-2-yl)-4-methylbenzamide]
Second: Cc1c(F)c(F)c(C(=O)NC2CCCC(C)C2C)c(F)c1F (stereo not drawn) [Example E43, N-(2,3-dimethylcyclohexyl)-2,3,5,6-tetrafluoro-4-methylbenzamide]
The EC50 of the first is 1.5-fold lower: 0.71 µM for the first, 1.08 µM for the second. The first is the more potent here.

`COc1c(Cl)cc(Cl)c(OC)c1C(=O)NC1CCCCC1C` (stereo not drawn) [Example E35, 3,5-dichloro-2,6-dimethoxy-N-(2-methylcyclohexyl)benzamide] and `COc1c(Cl)ccc(Cl)c1C(=O)NC1CCCCC1C` (stereo not drawn) [Example E37, 3,6-dichloro-2-methoxy-N-(2-methylcyclohexyl)benzamide] are within 1.5-fold of each other in EC50: 0.71 µM for the first, 0.77 µM for the second.

`Cc1cc(C)c(C(=O)NC2CCCCC2C)c(C)c1` (stereo not drawn) [Example E36, 2,4,6-trunethyl-N-(2-methylcyclohexyl)benzamide] and `CC1CCCCC1NC(=O)c1c(Cl)cccc1Cl` (stereo not drawn) [Example E39, 2,6-dichloro-N-(2-methylcyclohexyl)benzamide] are within 1.5-fold of each other in EC50: 0.72 µM for the first, 0.91 µM for the second.

`Cc1c(F)c(F)c(C(=O)N[C@@H]2CC3CCC2C3)c(F)c1F` (stereo partly drawn) [Example E41, N-((2R)-bicyclo[2.2.1]heptan-2-yl)-2,3,5,6-tetrafluoro-4-methylbenzamide] and `CCC(COC)NC(=O)c1ccc(C)cc1C` (stereo not drawn) [Example E42, N-(1-methoxybutan-2-yl)-2,4-dimethylbenzamide] are within 1.5-fold of each other in EC50: 1.02 µM for the first, 1.06 µM for the second.
